Results on eleven compounds are retold here after ChEMBL document CHEMBL5465560, “Selectivity Literature for EUbOPEN Chemogenomic Library” (2024).

The target in assay [1] is Macrophage-stimulating protein receptor (Homo sapiens, UniProt Q04912). Put plainly: Selectivity interaction (Upstate Kinase Profiler service (Millipore)) EUB0000056c MST1R. To be noted: at 1 µM.
Assay [2] addresses Receptor tyrosine-protein kinase erbB-3 (Homo sapiens) (UniProt P21860). To be noted: at 10 µM.
Assay [3] deals with Mitogen-activated protein kinase 3 (Homo sapiens, UniProt P27361). The experiment in a line: Selectivity interaction (Ambit KINOMEscan and KiNATiv profiling in Jurkat cells) EUB0000090b MAPK3. The conditions noted are these: at 1 µM. The class given is cell-based.
Sequence of Mitogen-activated protein kinase 3 (P27361 whole entry, canonical isoform): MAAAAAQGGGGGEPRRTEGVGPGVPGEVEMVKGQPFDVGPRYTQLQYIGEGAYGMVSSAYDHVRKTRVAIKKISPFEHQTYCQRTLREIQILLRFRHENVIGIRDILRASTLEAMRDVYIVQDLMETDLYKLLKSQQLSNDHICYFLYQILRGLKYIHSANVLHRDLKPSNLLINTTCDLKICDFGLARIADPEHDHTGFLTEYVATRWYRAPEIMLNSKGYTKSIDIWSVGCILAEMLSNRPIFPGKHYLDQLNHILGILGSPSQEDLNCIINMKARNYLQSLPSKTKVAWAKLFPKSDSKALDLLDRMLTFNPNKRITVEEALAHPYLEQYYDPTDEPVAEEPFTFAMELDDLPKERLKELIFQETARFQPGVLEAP
The subject of assay [4] is Phosphatidylinositol 4,5-bisphosphate 3-kinase catalytic subunit alpha isoform (Homo sapiens), P42336 [E545K]. The conditions noted are these: at 10 µM.
Assay [5] addresses T1, Calcium/calmodulin-dependent protein kinase type IV (Homo sapiens) (UniProt Q16566).
T1 sequence (whole entry): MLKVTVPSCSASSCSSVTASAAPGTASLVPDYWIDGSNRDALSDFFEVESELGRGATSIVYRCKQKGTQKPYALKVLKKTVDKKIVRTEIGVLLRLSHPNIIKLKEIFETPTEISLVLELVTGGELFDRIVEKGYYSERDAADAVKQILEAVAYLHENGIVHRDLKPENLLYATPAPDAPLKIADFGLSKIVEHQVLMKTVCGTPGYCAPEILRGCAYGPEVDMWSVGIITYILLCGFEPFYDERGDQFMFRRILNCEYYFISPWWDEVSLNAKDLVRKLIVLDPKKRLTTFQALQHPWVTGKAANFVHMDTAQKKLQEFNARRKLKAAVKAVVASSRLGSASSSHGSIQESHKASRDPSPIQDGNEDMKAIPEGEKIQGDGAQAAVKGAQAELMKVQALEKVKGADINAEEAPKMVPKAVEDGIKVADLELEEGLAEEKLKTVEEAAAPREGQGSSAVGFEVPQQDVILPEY
The experiment in a line: Selectivity interaction (KinomeScan (DiscoverX)) EUB0000092b CAMK4. The conditions noted are these: at 10 µM.

Assay [6] has as its system Hepatocyte growth factor receptor (Homo sapiens), P08581 [M1250T]. The experiment in a line: (§1) Selectivity interaction (KinomeScan (DiscoverX)) EUB0000092b MET. To be noted: at 10 µM.
Assay [7] addresses Hepatocyte growth factor receptor (Homo sapiens, UniProt P08581). The description is as §1. The conditions noted are these: at 10 µM.
The subject of assay [8] is Hepatocyte growth factor receptor (Homo sapiens), P08581 [Y1235D]. The assay is described as §1. To be noted: at 10 µM.
The target in assay [9] is Mitogen-activated protein kinase 11 (Homo sapiens) (UniProt Q15759). Put plainly: Selectivity interaction (KinomeScan (DiscoverX)) EUB0000695a MAPK11. To be noted: at 100 nM.
Sequence of Mitogen-activated protein kinase 11 (Homo sapiens) (Q15759 whole entry): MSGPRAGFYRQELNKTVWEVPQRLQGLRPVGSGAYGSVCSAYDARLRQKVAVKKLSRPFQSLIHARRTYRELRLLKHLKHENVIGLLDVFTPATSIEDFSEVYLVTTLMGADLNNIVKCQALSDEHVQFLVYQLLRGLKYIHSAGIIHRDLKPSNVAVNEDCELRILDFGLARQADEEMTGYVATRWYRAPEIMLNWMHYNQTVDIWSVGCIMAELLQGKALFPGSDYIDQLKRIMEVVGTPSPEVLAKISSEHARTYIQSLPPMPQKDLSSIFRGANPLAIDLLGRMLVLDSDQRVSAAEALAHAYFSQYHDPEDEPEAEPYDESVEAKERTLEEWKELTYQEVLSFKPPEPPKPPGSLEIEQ
Assay [10] addresses T2, Atypical kinase COQ8B, mitochondrial (Homo sapiens) (UniProt Q96D53).
T2 sequence (whole entry): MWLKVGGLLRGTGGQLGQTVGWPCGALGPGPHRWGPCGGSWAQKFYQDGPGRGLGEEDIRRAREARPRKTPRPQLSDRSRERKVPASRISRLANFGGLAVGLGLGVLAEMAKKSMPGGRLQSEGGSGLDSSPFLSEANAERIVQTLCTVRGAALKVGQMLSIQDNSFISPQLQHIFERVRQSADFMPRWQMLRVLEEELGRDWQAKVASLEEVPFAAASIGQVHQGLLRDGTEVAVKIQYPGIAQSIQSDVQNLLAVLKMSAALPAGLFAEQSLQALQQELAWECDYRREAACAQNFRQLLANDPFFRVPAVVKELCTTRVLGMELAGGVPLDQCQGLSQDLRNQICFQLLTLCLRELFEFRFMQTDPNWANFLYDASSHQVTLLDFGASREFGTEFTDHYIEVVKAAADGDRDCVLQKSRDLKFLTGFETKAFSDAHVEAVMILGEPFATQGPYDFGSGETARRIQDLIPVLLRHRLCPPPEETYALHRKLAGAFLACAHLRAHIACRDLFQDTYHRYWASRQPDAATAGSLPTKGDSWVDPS
Put plainly: Selectivity interaction (KinomeScan (DiscoverX)) EUB0000045b ADCK4.

Assay [11] deals with Cyclin-dependent kinase 18 (Homo sapiens) (UniProt Q07002). The experiment in a line: Selectivity interaction (KinomeScan (DiscoverX)) EUB0000045b CDK18.
Sequence of Cyclin-dependent kinase 18 (Homo sapiens) (Q07002 whole entry): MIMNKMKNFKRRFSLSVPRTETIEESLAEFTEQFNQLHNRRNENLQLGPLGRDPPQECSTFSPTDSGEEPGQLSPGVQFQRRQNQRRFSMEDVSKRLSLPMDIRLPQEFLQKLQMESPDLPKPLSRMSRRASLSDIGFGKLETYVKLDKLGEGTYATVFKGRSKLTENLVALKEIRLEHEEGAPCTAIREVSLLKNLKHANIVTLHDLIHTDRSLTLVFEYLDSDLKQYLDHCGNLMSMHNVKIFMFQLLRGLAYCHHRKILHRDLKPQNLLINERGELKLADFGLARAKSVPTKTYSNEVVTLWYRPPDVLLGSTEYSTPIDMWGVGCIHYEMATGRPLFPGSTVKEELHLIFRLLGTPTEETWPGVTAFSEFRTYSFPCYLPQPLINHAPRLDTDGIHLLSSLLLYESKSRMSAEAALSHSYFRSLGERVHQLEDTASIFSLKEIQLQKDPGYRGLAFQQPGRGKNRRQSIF
The target of assay [12] is T3, 3-phosphoinositide-dependent protein kinase 1 (Homo sapiens) (UniProt O15530).
T3 sequence (whole entry): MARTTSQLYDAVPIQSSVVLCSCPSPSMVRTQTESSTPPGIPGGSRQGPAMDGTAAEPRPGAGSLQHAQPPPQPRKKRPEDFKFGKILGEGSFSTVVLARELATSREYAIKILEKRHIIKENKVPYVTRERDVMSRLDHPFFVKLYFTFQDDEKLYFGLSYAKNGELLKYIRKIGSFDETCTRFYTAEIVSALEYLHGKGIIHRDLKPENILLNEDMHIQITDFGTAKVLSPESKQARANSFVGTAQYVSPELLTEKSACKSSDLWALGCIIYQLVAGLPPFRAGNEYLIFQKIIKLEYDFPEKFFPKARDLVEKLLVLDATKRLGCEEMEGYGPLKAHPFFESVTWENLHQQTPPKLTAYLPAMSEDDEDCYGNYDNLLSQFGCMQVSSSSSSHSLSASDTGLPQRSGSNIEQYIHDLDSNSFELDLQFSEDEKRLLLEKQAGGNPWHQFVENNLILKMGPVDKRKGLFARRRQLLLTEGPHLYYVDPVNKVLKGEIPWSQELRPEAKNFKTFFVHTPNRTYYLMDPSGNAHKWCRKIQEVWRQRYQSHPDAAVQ
The experiment in a line: Selectivity interaction (KinomeScan (DiscoverX)) EUB0000666a PDPK1. The conditions noted are these: at 10 µM.

Assay [13] deals with Serine/threonine-protein kinase 16 (Homo sapiens, UniProt O75716). Put plainly: Selectivity interaction (ActivX KiNativ screen (kinase selectivity in THP-1 cell lysates)) EUB0000639a STK16. In kind it is subcellular. To be noted: lysate, at 0.2 µM.
Sequence of Serine/threonine-protein kinase 16 (O75716 whole entry): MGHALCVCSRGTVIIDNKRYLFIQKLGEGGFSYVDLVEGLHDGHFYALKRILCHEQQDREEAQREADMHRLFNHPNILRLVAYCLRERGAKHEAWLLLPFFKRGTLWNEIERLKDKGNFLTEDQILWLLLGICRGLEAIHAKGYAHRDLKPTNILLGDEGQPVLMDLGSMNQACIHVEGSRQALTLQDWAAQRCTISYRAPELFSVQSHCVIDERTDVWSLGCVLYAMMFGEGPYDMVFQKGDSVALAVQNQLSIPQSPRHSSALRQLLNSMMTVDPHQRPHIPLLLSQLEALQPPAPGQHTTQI
Assay [14] addresses Dual specificity protein kinase CLK1 (Homo sapiens, UniProt P49759). The experiment in a line: Selectivity interaction (Kinase panel (DSF assay)) EUB0001489b CLK1. A general note: DSF heats the sample and reads unfolding from a dye or from intrinsic fluorescence.
A short description of assay [15]: Selectivity interaction (KinomeScan (DiscoverX)) EUB0000618a CDK2H. The conditions noted are these: at 10 µM.
The subject of assay [16] is Serine/threonine-protein kinase B-raf (Homo sapiens), P15056 [V600E]. Put plainly: Selectivity interaction (KinomeScan (DiscoverX)) EUB0000618a BRAF. The conditions noted are these: at 10 µM.

Sequence of Serine/threonine-protein kinase B-raf (Homo sapiens), P15056 [V600E] (P15056 whole entry V600E): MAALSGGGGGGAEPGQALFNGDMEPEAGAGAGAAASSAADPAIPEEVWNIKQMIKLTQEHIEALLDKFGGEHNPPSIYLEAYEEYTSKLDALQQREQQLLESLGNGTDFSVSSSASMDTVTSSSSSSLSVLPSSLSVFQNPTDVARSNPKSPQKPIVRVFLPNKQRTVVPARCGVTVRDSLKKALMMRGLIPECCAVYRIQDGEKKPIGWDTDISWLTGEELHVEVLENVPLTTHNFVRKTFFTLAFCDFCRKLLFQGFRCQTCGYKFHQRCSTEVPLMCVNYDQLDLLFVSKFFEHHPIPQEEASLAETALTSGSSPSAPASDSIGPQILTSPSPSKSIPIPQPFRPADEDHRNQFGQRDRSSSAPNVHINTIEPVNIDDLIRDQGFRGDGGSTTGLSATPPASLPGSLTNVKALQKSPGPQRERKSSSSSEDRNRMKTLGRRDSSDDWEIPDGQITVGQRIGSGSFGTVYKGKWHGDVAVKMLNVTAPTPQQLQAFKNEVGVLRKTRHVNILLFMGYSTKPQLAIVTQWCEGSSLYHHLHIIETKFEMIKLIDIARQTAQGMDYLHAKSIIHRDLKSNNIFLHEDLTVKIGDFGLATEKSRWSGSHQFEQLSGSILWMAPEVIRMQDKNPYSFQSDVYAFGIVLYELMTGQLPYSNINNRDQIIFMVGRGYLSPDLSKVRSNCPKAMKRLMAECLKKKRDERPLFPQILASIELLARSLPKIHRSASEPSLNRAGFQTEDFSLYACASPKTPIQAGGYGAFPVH
Sequence of Hepatocyte growth factor receptor (Homo sapiens), P08581 [Y1235D] (P08581 whole entry Y1235D): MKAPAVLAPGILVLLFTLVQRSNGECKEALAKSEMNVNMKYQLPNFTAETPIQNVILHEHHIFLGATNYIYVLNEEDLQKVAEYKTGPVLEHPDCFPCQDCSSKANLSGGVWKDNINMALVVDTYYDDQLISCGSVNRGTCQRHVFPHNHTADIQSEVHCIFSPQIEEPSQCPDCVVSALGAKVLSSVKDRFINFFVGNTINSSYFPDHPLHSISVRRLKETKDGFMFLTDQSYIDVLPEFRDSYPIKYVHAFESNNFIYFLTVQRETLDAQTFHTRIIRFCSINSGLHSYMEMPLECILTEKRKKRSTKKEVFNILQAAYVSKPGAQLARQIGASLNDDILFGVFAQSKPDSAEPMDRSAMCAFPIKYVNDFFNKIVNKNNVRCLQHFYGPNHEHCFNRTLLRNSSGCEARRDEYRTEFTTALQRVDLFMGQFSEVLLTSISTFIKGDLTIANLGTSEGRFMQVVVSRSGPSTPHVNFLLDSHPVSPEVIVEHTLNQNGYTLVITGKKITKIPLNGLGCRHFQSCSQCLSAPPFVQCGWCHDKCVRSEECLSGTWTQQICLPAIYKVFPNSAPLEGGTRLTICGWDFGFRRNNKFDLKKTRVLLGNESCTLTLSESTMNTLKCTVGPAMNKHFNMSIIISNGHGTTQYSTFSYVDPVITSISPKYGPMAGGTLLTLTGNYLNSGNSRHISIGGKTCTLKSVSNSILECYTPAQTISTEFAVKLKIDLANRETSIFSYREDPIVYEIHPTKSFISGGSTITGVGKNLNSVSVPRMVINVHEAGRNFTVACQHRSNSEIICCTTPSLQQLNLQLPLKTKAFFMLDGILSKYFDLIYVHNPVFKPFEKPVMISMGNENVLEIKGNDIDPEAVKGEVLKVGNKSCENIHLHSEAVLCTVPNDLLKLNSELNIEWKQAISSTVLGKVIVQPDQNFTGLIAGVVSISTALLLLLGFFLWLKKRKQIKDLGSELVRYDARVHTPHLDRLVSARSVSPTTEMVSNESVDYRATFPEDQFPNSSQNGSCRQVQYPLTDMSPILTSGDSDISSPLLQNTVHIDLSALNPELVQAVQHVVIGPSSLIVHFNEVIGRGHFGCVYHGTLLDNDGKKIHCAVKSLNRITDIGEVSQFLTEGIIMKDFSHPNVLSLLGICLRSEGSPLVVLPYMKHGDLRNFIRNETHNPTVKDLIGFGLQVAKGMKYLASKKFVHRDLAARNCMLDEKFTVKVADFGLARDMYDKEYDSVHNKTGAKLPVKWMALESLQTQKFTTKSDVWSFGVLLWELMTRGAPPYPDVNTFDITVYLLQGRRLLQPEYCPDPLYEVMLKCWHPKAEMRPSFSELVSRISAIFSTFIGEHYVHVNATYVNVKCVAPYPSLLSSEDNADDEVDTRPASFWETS
Sequence of Dual specificity protein kinase CLK1 (P49759 whole entry, looked up): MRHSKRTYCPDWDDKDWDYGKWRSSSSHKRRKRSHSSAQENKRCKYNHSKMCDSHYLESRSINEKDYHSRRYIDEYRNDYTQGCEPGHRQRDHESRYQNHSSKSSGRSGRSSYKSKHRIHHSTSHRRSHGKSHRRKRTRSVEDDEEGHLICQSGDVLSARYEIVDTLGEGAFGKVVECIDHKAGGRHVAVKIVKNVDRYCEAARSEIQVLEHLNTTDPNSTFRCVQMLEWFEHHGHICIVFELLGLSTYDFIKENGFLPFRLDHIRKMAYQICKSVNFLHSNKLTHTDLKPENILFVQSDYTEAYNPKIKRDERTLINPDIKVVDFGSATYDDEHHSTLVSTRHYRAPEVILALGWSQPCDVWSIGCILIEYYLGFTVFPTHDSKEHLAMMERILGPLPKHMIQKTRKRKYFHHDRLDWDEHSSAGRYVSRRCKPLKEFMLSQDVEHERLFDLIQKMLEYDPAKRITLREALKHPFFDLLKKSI

Consider `Cc1ccc(-c2ccc3c(ccc4sc5c(c43)NC[C@@H](C)NC5=O)n2)cn1`, for which the % of inhibition in [1] worked out at 20%. In [2], `Cc1cc([C@@H](C)Nc2ccccc2C(=O)O)c2nc(N3CCOCC3)cc(=O)n2c1` [AZD-6482] displayed a % of control of 100%. Consider `CN(C)C/C=C/C(=O)Nc1ccc(C(=O)N2CCCC(Nc3ncc(Cl)c(-c4c[nH]c5ccccc45)n3)C2)cc1` (stereo not drawn), for which the % of control in assay [3] worked out at 84%. With `CCN(CC)CCCCNc1ncc2cc(-c3cc(OC)cc(OC)c3)c(NC(=O)NC(C)(C)C)nc2n1`, the % of control in assay [4] was determined as 100%. Regarding `CCC(=O)N1CCN(c2ccc(-n3c(=O)ccc4cnc5ccc(-c6cnc7ccccc7c6)cc5c43)cc2C(F)(F)F)CC1`, the % of control in assay [5] came out at 90%; in [6] it was 79%; in assay [7], 84%; in [8], 100%. As for `Cc1cc(F)c(C(=O)Nc2cccc(-c3nncn3C(C)C)n2)cc1-n1cnc(C2CC2)c1`, the % of control in [9] came out at 100%. Regarding `C=CC(=O)Nc1cc(-n2c(=O)ccc3cnc4ccc(-c5ccc(NS(C)(=O)=O)cc5)cc4c32)ccc1C`, the % of control came to 100% in [10] (at 1 µM), 64% in assay [10] (at 10 µM), 83% in [11] (at 1 µM) and 88% in assay [11] (at 10 µM).

For `O=C(NOC[C@H](O)CO)c1ccc(F)c(F)c1Nc1ccc(I)cc1F`, in assay [12], the % of control was 71%. Compound `CC[C@@H]1[C@H](F)C(=O)N[C@@H]1COc1nccc2cc(C(N)=O)c(OC)cc12` [ZIMLOVISERTIB] registered a % of inhibition in assay [13] of 35.1%. `CN1CCN(C(=O)c2ccc3cc2OCCOCCNc2ccn4ncc-3c4n2)CC1`: the dTM in assay [14] amounted to 2.9 K. Take `O[C@H]1CC[C@H](Nc2ncc3nc(Nc4c(F)cc(F)cc4F)n([C@H]4CCOC4)c3n2)CC1`: the % of control came to 100% in assay [15] and 98% in [16].
